One data set concerns the target T1, EGFR (L858R) mutant (Homo sapiens, UniProt P00533, L858R).
T1 construct: purchased DiscoverX (Eurofins)
The experiment in a line: ScanEDGE competition binding, EGFR (L858R). On the set-up: dose or concentration left out as unconfirmed. From the text:
(§1) The ScanEDGE assay, completed by DiscoverX (Eurofins) is a proprietary active site-directed competition binding assay. Compounds that bind the kinase active site prevent kinase binding to the immobilized ligand, reducing the amount of kinase captured on the solid support. Hits are identified by measuring the amount of kinase captured in experimental vs, control samples by a qPCR method that detects an associated DNA label. According to data provided by Eurofins, a typical hit at 5-10% of control signal in a 1 μM assay as shown above is generally associated with a KD in the range of 100-1,000 nM. Readings with greater than 35% of control signal correspond to exceeding large dissociation constants.

A further data set deals with T2, EGFR (Homo sapiens, UniProt P00533).
T2 construct: purchased DiscoverX (Eurofins)
T2 sequence (P00533 25-1210): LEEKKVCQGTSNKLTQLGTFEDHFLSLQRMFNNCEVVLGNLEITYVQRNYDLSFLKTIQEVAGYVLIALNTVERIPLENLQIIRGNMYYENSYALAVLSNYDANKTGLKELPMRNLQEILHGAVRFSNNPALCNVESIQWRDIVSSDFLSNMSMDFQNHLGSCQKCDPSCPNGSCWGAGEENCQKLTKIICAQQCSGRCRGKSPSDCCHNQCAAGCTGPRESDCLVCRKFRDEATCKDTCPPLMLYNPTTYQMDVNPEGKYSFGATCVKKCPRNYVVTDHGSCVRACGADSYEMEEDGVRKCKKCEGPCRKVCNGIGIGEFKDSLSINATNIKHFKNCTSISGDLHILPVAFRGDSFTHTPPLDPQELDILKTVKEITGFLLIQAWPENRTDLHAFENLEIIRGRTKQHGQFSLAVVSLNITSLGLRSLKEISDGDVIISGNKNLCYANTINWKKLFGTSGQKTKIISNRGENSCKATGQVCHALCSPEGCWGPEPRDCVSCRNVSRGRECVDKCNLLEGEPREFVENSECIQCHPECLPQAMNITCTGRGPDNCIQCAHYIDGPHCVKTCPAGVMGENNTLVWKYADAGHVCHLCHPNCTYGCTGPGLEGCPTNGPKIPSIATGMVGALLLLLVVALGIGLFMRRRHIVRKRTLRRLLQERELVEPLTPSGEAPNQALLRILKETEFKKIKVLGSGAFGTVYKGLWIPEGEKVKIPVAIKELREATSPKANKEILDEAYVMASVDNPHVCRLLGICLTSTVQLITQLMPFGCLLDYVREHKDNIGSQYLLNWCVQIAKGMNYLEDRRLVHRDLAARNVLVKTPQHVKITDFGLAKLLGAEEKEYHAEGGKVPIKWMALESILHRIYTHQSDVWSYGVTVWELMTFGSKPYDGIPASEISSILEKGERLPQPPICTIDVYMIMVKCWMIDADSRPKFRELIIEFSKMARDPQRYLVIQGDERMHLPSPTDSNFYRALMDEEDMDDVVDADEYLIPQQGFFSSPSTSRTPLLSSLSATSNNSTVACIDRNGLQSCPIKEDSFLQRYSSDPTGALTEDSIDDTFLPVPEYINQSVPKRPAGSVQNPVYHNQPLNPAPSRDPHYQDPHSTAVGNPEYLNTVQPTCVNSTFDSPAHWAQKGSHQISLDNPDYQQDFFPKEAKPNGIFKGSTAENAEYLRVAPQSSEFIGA
Description: ScanEDGE competition binding, EGFR. The following applies: at 1 μM; b168 prints 1 M.
Excerpt: as §1

The test system of the next data set is MEK1/2. Description: ScanEDGE competition binding, MEK1/2. The following applies: ScanEDGE screen.
Excerpt: as §1

In another data set the target is T3, MEK3 (Homo sapiens, UniProt P46734).
T3 sequence (P46734 1-347): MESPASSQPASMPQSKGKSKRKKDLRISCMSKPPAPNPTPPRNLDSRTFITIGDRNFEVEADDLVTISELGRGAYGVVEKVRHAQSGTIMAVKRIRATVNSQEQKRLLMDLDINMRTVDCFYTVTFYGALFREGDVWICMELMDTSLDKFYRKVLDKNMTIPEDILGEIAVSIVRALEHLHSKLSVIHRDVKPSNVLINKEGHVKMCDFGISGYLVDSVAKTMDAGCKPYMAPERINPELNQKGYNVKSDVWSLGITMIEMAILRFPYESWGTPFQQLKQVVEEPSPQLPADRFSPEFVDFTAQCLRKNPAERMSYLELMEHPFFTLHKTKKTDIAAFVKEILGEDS
The experiment in a line: Additional selectivity assay, MEK3 (FIG. 9). Type of data set: binding.

For the next data set, the system named is p38α/β. Description: ScanEDGE competition binding, p38α/β. The following applies: ScanEDGE screen.
Excerpt: as §1

Data set [1] deals with T-ALL cell lines (JURKAT, KOPT-K1, RPMI-8402, ALL-SIL). Description: Cytotoxicity assay (CellTiter-Glo), T-ALL cell lines. Type of data set: cell-based. The following applies: 48 hours.
The test system of a further data set is 90 wildtype kinases. The experiment in a line: ScanEDGE 97-kinase selectivity screen (DiscoverX/Eurofins), panel and S-score. Type of data set: binding.
Excerpt: as §1
Selectivity score (or S-score) is a quantitative measure of compound selectivity corresponding to the ratio of hits to the number of screened wildtype kinases.

In another data set the target is T4, MEK6 (Homo sapiens, UniProt P52564).
T4 sequence (P52564 1-334): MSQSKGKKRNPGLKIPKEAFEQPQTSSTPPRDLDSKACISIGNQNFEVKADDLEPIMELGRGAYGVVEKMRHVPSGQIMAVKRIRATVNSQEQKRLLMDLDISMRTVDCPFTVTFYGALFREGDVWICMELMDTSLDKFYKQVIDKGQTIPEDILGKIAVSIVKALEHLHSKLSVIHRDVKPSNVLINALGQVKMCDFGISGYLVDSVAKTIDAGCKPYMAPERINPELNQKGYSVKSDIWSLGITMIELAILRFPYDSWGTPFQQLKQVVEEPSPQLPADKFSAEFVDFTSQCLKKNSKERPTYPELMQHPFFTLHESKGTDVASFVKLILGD
The experiment in a line: Additional selectivity assay, MEK6 (FIG. 9). Type of data set: binding.

The target of data set [2] is T5, full-length MAP2K7 N-terminal GST fusion protein (Homo sapiens, UniProt O14733).
T5 construct: purchased Carna Biosciences 07-147-10; host or cells: E. coli
T5 sequence (O14733 1-419): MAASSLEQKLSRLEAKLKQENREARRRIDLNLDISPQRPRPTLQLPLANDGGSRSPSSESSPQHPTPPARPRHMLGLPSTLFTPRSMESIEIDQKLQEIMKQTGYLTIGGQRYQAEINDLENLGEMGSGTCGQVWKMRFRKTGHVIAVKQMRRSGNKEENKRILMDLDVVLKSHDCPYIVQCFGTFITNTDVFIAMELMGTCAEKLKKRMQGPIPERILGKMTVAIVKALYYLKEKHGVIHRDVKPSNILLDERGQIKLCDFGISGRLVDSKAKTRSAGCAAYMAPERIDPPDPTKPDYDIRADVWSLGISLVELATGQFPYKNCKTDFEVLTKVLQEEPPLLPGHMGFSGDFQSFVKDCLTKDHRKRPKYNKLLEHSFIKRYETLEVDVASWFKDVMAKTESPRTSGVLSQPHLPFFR
Description: Whole-protein LC/TOF-MS of covalent labeling. It counts as binding. The following applies: 2 equiv inhibitor, 5° C., 12 hours. The procedure: The construct was full-length MAP2K7 (1-419 amino acids of accession number NP_660186.1), which was prepared by the manufacturer as an N-terminal GST-fusion protein using an E. coli expression system. The construct was then purified by glutathione sepharose chromatography and shipped in a storage buffer containing 50 mM Tris —HCl, 150 mM NaCl, 0.05 mM Brij-35, 1 mM DTT, and 10% glycerol at pH=7.5.
Each whole-protein MS experiment was run with a 10 uL injection of a sample containing 50 μg of protein diluted to a final volume of 100 μL. The construct aliquots were first diluted to the appropriate volume with an aqueous solution of 150 mM NaCl and 50 mM Tris —HCl. The diluted samples were loaded on a Pierce spin column (ThermoFisher Scientific catalog number: 87777) to remove Brij-35 and finally eluted with the appropriate volume of the same buffer. Finally, 1.3 uL of DMSO (vehicle) or a 1 mM DMSO solution of covalent inhibitor was added, and the resulting roughly 101 uL solutions were incubated at 5° C. for 12 hours. The incubates were injected (10 uL) on an Agilent 6201 MSLC-TOF (ESI) with a protein column. A 10 minute water:acetonitrile gradient was performed, eluting recombinant proteins of interest in roughly 5 minutes. Masses were deconvoluted using MassHunter BioConfirm (maximum entropy).

Entries after “also recorded” stand apart in the source; their conditions may differ.

T1 sequence (P00533 25-1210 L858R): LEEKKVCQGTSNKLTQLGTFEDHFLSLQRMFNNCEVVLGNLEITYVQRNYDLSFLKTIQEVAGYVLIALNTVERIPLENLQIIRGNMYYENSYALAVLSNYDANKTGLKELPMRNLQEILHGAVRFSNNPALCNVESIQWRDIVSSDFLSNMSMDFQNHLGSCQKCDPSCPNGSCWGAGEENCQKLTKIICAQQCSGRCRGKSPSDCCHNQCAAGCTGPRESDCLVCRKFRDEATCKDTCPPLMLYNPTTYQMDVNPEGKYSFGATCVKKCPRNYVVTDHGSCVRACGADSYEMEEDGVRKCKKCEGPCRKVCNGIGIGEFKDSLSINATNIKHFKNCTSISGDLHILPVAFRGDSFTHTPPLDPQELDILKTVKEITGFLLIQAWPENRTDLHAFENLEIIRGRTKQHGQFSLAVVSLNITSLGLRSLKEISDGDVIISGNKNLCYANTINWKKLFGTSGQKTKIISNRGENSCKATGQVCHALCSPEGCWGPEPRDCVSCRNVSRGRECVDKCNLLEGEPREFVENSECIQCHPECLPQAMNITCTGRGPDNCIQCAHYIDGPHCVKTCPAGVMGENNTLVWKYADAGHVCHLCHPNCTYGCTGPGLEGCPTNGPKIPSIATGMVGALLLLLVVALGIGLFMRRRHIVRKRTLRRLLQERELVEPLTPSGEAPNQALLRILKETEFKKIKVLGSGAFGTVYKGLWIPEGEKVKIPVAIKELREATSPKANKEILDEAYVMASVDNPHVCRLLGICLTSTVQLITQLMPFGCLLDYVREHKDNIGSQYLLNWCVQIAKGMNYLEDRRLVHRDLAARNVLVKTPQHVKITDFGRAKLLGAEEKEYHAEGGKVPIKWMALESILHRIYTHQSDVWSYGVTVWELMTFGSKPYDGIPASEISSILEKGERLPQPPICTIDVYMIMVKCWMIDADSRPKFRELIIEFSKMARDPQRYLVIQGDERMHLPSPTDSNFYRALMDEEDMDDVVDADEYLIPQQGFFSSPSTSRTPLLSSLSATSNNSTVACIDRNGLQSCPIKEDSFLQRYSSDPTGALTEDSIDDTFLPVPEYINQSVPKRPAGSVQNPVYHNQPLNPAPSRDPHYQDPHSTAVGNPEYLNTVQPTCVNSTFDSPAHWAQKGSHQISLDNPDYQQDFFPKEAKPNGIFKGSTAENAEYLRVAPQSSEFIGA

On to `O=C(CCl)Nc1cccc(Oc2cc(NCc3ccccc3)ncn2)c1` [Compound 25, N-(3-((6-(benzylamino)pyrimidin-4-yl)oxy)phenyl)-2-chloroacetamide], for which the “binding to EGFR (L858R) mutant” value at EGFR (L858R) mutant is listed as “interacted significantly”. For the same compound, the “binding to EGFR” value on EGFR is “interacted significantly; also recorded: appreciably bound”. Moreover, the “activity on MEK1/2” value with MEK1/2 was “no appreciable activity”. The “activity/binding at MEK3” value on MEK3 is “inactive; also recorded: lack of binding”. In the data set with p38α/β, the “activity on p38α/β” value is listed as “no appreciable activity”. In addition, the dose-response cytotoxicity entry in data set [1] was “marked cytotoxicity”. Further, in the data set with 90 wildtype kinases (1000 nM, 90 non-mutant kinases), the “Number of Hits, S(1)” value is 0; the “Number of Hits, S(10)” value was 1; the “Number of Hits, S(35)” value worked out at 1; the “Selectivity Score S(10)” value came out at 0.011. The “Selectivity Score S(35)” value with 90 wildtype kinases (1000 nM, 90 non-mutant kinases) was determined as 0.011. The “selectivity score after adding MEK3, MEK5 and MEK6 (1/93)” value with 90 wildtype kinases (93 kinases) was 0.011. Besides, the “activity/binding at MEK6” value at MEK6 was “inactive; also recorded: lack of binding”. Further, in data set [2], the “covalent labeling of MAP2K7, whole-protein MS” value is “covalent engagement; also recorded: Complete labeling”.

(Values after patent US20250049791A1, “Synthesis of MEK7 Inhibitors and methods of Use Thereof” (Northwestern University, priority 2023, published 2025).)
